Experimental data published in ChEMBL document CHEMBL1134428, “Combretoxazolones: synthesis, cytotoxicity and antitumor activity” (Bioorg Med Chem Lett, 2001).

Key:
B16 [1] = assay: In vivo antitumor activity against BDF1 mice bearing B16 murine melanoma cells at a dose of 3 mg/kg/day; assay type: functional, Mus musculus
A549 [2] = assay: Concentration which produces 50% inhibition of growth of human lung carcinoma cell line A549; assay type: functional, cell-based
B16 [3] = assay: Concentration which produces 50% inhibition of growth of murine melanoma B16 cell line; assay type: functional, cell-based; details: Mus musculus
B16 [4] = assay: In vivo antitumor activity against BDF1 mice bearing B16 murine melanoma cells at a dose of 100 mg/kg/day; assay type: functional, Mus musculus
B16 [5] = assay: In vivo antitumor activity against BDF1 mice bearing B16 murine melanoma cells at a dose of 10 mg/kg/day; assay type: functional, Mus musculus
B16 [6] = assay: In vivo antitumor activity against BDF1 mice bearing B16 murine melanoma cells at a dose of 30 mg/kg/day; assay type: functional, Mus musculus
HCT-116 [7] = assay: Concentration which produces 50% inhibition of growth of human colon tumor HCT 116; assay type: functional, cell-based
MCF7 [8] = assay: Concentration which produces 50% inhibition of growth of human breast tumor MCF-7 cell line; assay type: functional, cell-based
PC-3 [9] = assay: Concentration which produces 50% inhibition of growth of prostate tumor cell line PC-3; assay type: functional, cell-based; details: Homo sapiens
A549 [10] = assay: Compound was tested for inhibition of growth of human lung carcinoma cell line A549 up to a conc of 10 uM; NI means no inhibition; assay type: functional, cell-based
MCF7 [11] = assay: Compound was tested for inhibition of growth of human breast tumor MCF-7 cell line up to a conc of 10 uM; NI means no inhibition; assay type: functional, cell-based
PC-3 [12] = assay: Compound was tested for inhibition of growth of prostate tumor cell line PC-3 up to a conc of 10 uM; NI means no inhibition; assay type: functional, cell-based, Homo sapiens
HCT-116 [13] = assay: Compound was tested for inhibition of growth of human colon tumor HCT116 up to a conc of 10 uM; NI means no inhibition; assay type: functional, cell-based

| SMILES | IC50 (A549 [2]) | IC50 (B16 [3]) | IC50 (HCT-116 [7]) | IC50 (MCF7 [8]) | IC50 (PC-3 [9]) | IC50 (A549 [10]) | IC50 (MCF7 [11]) | IC50 (PC-3 [12]) | IC50 (HCT-116 [13]) | Inhibition rate (B16 [1]) | Inhibition rate (B16 [4]) | Inhibition rate (B16 [5]) | Inhibition rate (B16 [6]) |
| --- | --- | --- | --- | --- | --- | --- | --- | --- | --- | --- | --- | --- | --- |
| COc1cccc2c1C(=O)c1c(O)c3c(c(O)c1C2=O)C[C@@](O)(C(=O)CO)C[C@@H]3O[C@H]1C[C@H](N)[C@H](O)[C@H](C)O1 [DOXORUBICIN] | – | – | – | – | – | – | – | – | – | 55% | – | – | – |
| COc1ccc(-n2c(-c3cc(OC)c(OC)c(OC)c3)coc2=O)cc1 | – | 1880 nM | – | – | – | Not Active | Not Active | Not Active | Not Active | – | – | – | – |
| COc1ccc(-c2coc(=O)n2-c2cc(OC)c(OC)c(OC)c2)cc1 | 19.9 nM | 7.9 nM | 11 nM | 10.5 nM | 7.5 nM | – | – | – | – | – | – | – | – |
| COc1cc(-n2c(-c3ccc4c(c3)OCO4)coc2=O)cc(OC)c1OC | 64.5 nM | 45 nM | 57.4 nM | 39.7 nM | 70.6 nM | – | – | – | – | – | – | – | – |
| COc1cc(-c2nc(O)oc2-c2ccc3c(c2)OCO3)cc(OC)c1OC | 63.1 nM | 89.3 nM | 101 nM | 78.5 nM | 112 nM | – | – | – | – | – | – | – | – |
| COc1ccc(-c2oc(O)nc2-c2cc(OC)c(OC)c(OC)c2)cc1 | 16.9 nM | 14.5 nM | 21.7 nM | 28.4 nM | 20.1 nM | – | – | – | – | – | – | – | – |
| COc1cc(-n2c(-c3ccc4ccccc4c3)coc2=O)cc(OC)c1OC | 5.9 nM | 5.8 nM | 4.9 nM | 3.7 nM | 3.1 nM | – | – | – | – | – | – | – | – |
| COc1cc(-c2nc(O)oc2-c2ccc3ccccc3c2)cc(OC)c1OC | 10.8 nM | 7.4 nM | 11.2 nM | 16.7 nM | 7.1 nM | – | – | – | – | – | – | – | – |
| COc1ccc(/C=C\c2cc(OC)c(OC)c(OC)c2)cc1O [COMBRETASTATIN A4] | 2.1 nM | 1 nM | 0.9 nM | 2.7 nM | 2.7 nM | – | – | – | – | – | – | – | – |
| COc1ccc(-c2nc(O)oc2-c2cc(OC)c(OC)c(OC)c2)cc1 | – | 1390 nM | – | – | – | Not Active | Not Active | Not Active | Not Active | – | – | – | – |

Further molecules by falling IC50 (B16 [3]), results first:

| IC50 (A549 [2]) | IC50 (B16 [3]) | IC50 (HCT-116 [7]) | IC50 (MCF7 [8]) | IC50 (PC-3 [9]) | IC50 (A549 [10]) | IC50 (MCF7 [11]) | IC50 (PC-3 [12]) | IC50 (HCT-116 [13]) | SMILES | Inhibition rate (B16 [1]) | Inhibition rate (B16 [4]) | Inhibition rate (B16 [5]) | Inhibition rate (B16 [6]) |
| --- | --- | --- | --- | --- | --- | --- | --- | --- | --- | --- | --- | --- | --- |
| 7.9 nM | 5.4 nM | 6.1 nM | 5.7 nM | 6.4 nM | – | – | – | – | COc1ccc(-c2oc(O)nc2-c2cc(OC)c(OC)c(OC)c2)cc1O | – | – | – | – |
| 3.8 nM | 2.4 nM | 3.7 nM | 4.9 nM | 2.1 nM | – | – | – | – | COc1ccc(-c2oc(O)nc2-c2cc(OC)c(OC)c(OC)c2)cc1N | – | – | – | – |
| 4.3 nM | 1.1 nM | 3.2 nM | 1.8 nM | 2.5 nM | – | – | – | – | COc1ccc(-c2coc(=O)n2-c2cc(OC)c(OC)c(OC)c2)cc1N | – | 67% | 34% | 61% |
| 3.1 nM | 0.9 nM | 1.7 nM | 2.9 nM | 2.3 nM | – | – | – | – | COc1ccc(-c2coc(=O)n2-c2cc(OC)c(OC)c(OC)c2)cc1O | – | – | – | – |
